# Experimental data from paper PMC12040169 (PLOS Biology, 2025).
# Columns and labels:
# [1] = test system: T1, C. trachomatis L2/434/Bu expressing GFP (CTL2-GFP); assay: microbe, parasite or virus in culture; set-up: C. trachomatis total inclusion area by high-content imaging, normalised to DMSO; settings: Chlamydia trachomatis, HeLa, 28.5 h; total inclusion area; read-out: % of control remaining
# T1 construct: L2/434/Bu GFP intracellular growth in HeLa cells
# Text: We screened a library of 36,785 small molecules displaying drug-like properties and covering a wide chemical space (Fig 1A and S2A Data). In this process, we also complemented the assay described above with an imaging-based readout (Fig 1B). After measurements of bulk GFP and resorufin fluorescence, cells were fixed, stained with the DNA dye Hoechst, and imaged at a high-content imaging platform to detect chlamydial inclusions (GFP) and host cell nuclei (Hoechst). The total area and number of inclusions in individual wells and the number of nuclei then served as additional proxies for chlamydial growth and host cell viability. […] MICs were calculated as described above.
# [2] = test system: T2, CTL2-GFP (C. trachomatis L2/434/Bu, GFP-expressing); assay: microbe, parasite or virus in culture; set-up: Intracellular C. trachomatis growth in HeLa cells, bulk GFP fluorescence relative to DMSO; settings: Chlamydia trachomatis, HeLa, 28.5 h; bulk GFP, mean of 2; read-out: % of control remaining
# T2 construct: L2/434/Bu, GFP-expressing
# Experimental: MICs were calculated as described above.
# in vitro [3] = assay: in vitro; set-up: Viability of infected HeLa host cells, resazurin conversion, bulk resorufin fluorescence relative to DMSO; settings: human, hela cells; bulk resorufin, mean of 2
# in vitro [4] = settings: human, hela cells, % viability
SMILES,activity at 1 µM [1],activity at 5 µM [1],activity at 10 µM [1],activity at 1 µM [2],activity at 5 µM [2],activity at 10 µM [2],"viability at 28.5 h, 1 µM (in vitro [3])","viability at 28.5 h, 5 µM (in vitro [3])","viability at 28.5 h, 10 µM (in vitro [3])","viability at 28.5 h, 10 µM (in vitro [4])"
COc1ccc(CCN(CCc2ccccc2)CC(O)COc2cccc3c2CCCC3)cc1 (centres unmarked) [CBK024506T],99%,114%,55.3%,108%,104%,51%,97.4%,95.2%,101%,
Cc1nn(C)c(N2CCN(C(=O)OC(C)(C)C)CC2)c1N [CBK034182],122%,92%,53.1%,120%,91.7%,38.1%,90.6%,94.8%,88.5%,
CCCCCC(=O)Nc1ccc(S(=O)(=O)Nc2nnc(CC)s2)cc1 [CBK045478],122%,53%,48.9%,137%,47.1%,29.6%,94.8%,93.6%,91.2%,
CC(=O)Nc1ccc(S(=O)(=O)Nc2ccc(C(=O)Nc3ccc(F)cc3)cc2)cc1 [CBK050401],114%,48.5%,30%,101%,31.9%,14.2%,93.4%,87.7%,91.8%,
CN1CCN(c2ccc3ccn(S(=O)(=O)c4ccc([N+](=O)[O-])cc4)c3n2)CC1 [CBK070757C],106%,64%,24.6%,140%,89.2%,46.7%,89.6%,87.7%,86%,
N#Cc1c(Nc2cccc(C(F)(F)F)c2)sc(C(=O)c2ccc3c(c2)OCO3)c1N [CBK074399],2.52%,2.64%,6.62%,10.1%,11.2%,17.7%,87.7%,85.9%,81.1%,
Cc1ccc(OCC(O)CN2CCN(c3nc(-c4ccccc4)ns3)CC2)c([N+](=O)[O-])c1 (centres unmarked) [CBK074696],113%,55.9%,68.2%,147%,120%,133%,104%,99.5%,102%,
CCN(Cc1cccc(C(=O)O)c1)Cc1noc(C2CCC2)n1 [CBK307708],,,,,,,,,,102%
Cc1ncsc1CCN(C)C(C)C(=O)Nc1nccs1 (centres unmarked) [CBK307709],,,,,,,,,,109%
CCC(O)c1nc(CCSC)nn1-c1cc(=O)n(C)c2ccccc12 (centres unmarked) [CBK307711],,,,,,,,,,90.5%
CC(C)n1cnnc1CN1CCN(c2ccc(C#N)cc2)CC1 [CBK307714],,,,,,,,,,106%
CCS(=O)(=O)CCNC(=O)c1cnc(N2CCCCC2)nc1C [CBK307715],,,,,,,,,,82.9%
Cc1nn(C)c(Cl)c1CN1CCCC(CCC(=O)N2CCN(C)CC2)C1 (centres unmarked) [CBK307716],,,,,,,,,,92.5%
Cc1ccc(OCc2occc2C(=O)N2CCc3[nH]cnc3C2)cc1 [CBK307717],,,,,,,,,,85.6%
CC(=O)Nc1ccc(CNC(=O)CN2CCCC(c3ncc[nH]3)C2)cc1 (centres unmarked) [CBK307718],,,,,,,,,,96.5%
